# Where “and” joins values, the source holds several entries; their conditions need not be identical. Equal entries are not always repeated. Where two headings read alike, the source gives them in different places.
# What was measured:
# UM-SCC-22A cells = experiment: MTT cell survival assay and isobologram studies; type: cell-based, human
# Protocol: Human head and neck cancer cell lines UM-SCC-1 (retromolar trigone/floor of the mouth), UM-SCC-12 (primary tumor of larynx), and UM-SCC-22A cells were obtained from clinical samples. Cells were grown in DMEM containing 10% FCS and 1% penicillin/streptomycin at 37° C. in 5% CO2.
# MTT cell survival assay and isobologram studies. The concentrations of agents that inhibited cell growth by 50% (IC50) were determined from cell survival plots obtained by MTT. Triplicate wells were used for each treatment. The final concentration of DMSO (a solvent for conventional ceramides, GMZ and DOX) in the growth medium was less than 0.1% (v/v) which has no effect on cell growth and survival. Pyridinium ceramides were dissolved in sterile water or growth medium. In short, after cells (5-10×10^3/well) were seeded in 96-well-plates for 24 hr, they were treated with increasing concentrations of ceramide analogs for an additional 48 or 96 hr. For combination treatments, ceramides and chemotherapeutic agents (gemcitabine (GMZ) or doxorubicin (DOX)) were added to the growth medium simultaneously during treatment. Isobologram plots were then constructed using IC50 values of the two agents alone or in combination obtained from MTT assays. A straight line joining points on x- and y-axes represent the IC50 concentrations of two agents, and the points representing the IC50 concentrations of the combination of the two agents are represented as scatter plots on the same graphs. In general, the points that fall within the left of the straight line indicate synergism. The experiments were performed as triplicates in at least 3 independent experiments.
# Human head and neck cancer cell lines UM-SCC-1 (retromolar trigone/floor of the mouth), UM-SCC-14A (SCC of anterior floor of the mouth), and UM-SCC-22A (SCC of hypopharynx) cells were obtained. Cells were grown in DMEM containing 10% FCS and 1% penicillin/streptomycin at 37° C. in 5% CO2.
# MTT cell survival assay and isobologram studies. The concentrations of agents that inhibited cell growth by 50% (IC50) were determined from cell survival plots obtained by MTT assays. […] In general, the points that fall within the left of the straight line indicate synergism. The experiments were performed as triplicates in at least 3 independent experiments. Error bars represent standard deviations.
# [1] = tested on: MCF7 breast carcinoma cells; experiment: Cell proliferation and viability, Trypan blue exclusion assay; type: cell-based; conditions: for IC50: 48 h treatment, read-out: IC50, inhibitory effect on MCF7 cell growth
# Protocol: FIGS. 5A-5F show the dose dependent effects of CCPS analogs on survival of MCF7 breast carcinoma cells in comparison to the activity of D-e-C6-ceramide, which is commonly used as a model of ceramide action. Cell proliferation and cell viability were determined by Trypan blue exclusion assay. These assays were performed using duplicate samples in two or three independent experiments.
# Cell Proliferation: Cells were seeded into plates at a density of approx. 50% corresponding to 1×10^6 cells, in 10 ml of 10% FCS and after an over night incubation the cells were treated with LCL compounds at concentration 0-20 μM in ethanol (ethanol level was kept below 0.1%) and the changes in cell numbers after 48 h were determined and expressed as a percentage of the untreated controls.
# Briefly, media was removed, cells were washed twice with PBS, detached using 1% Trypsin and centrifuged at 800 rpm. Cell pellets were resuspended in PBS and Trypan blue (Sigma Chemicals, St. Louis, Mo., USA) was added (1:1 dilution). Under light microscope, the percentage of unstained and stained cells was assessed.
# To examine the anticancer activity of CCPS analogs of the invention, their inhibitory effect on MCF7 breast carcinoma cells were analyzed and compared to the activity of D-e-C6-ceramide, which is commonly used as a model of action for ceramides. Cell proliferation and cell viability were determined by Trypan blue exclusion assay.
# [2] = mice; cited from earlier work
# [3] = tested on: isolated rat liver mitochondria; experiment: Accumulation / binding in isolated mitochondria; conditions: at 4 min
# Protocol: FIG. 16. […] Bar 2 and 4 (+FCCP), ΔΨ was dissipated by addition of FCCP at 1 μM plus antimycin A at 0.5 μg/mg protein from the beginning of the experiment. Results are expressed as mean+SEM of n=3, *p=0.01 versus control.
# FIG. 23. […] Trace 3 was corrected for the absorbance of TMRM.
# Preparation of mitochondria from rat liver.
# Mitochondrial incubation medium.
# Analysis of ceramides by mass spectroscopy (MS).
# [4] = tested on: isolated rat liver mitochondria; experiment: Mitochondrial permeabilization (ΔΨ, large-amplitude swelling); conditions: for mitochondrial large-amplitude swelling (in words): 60 μM
# Protocol: Effects of ceramides on ΔΨ value (17A) and mitochondrial large-amplitude swelling (17B, 17C) Mitochondria were incubated at the condition described under Section 9.1 except that 2 μM of TPP+ was present from the beginning of the experiment. Alamethicin (ALA), a pore-forming peptide (7 μg/mg protein), was added as indicated to induce permeabilization and determine the full extend of potential changes in the parameters of interest. Where indicated ceramides at 40 μM were present from the beginning of the experiment. FIGS. 17A and 17B show time-courses of ceramides effect on ΔΨ and mitochondrial swelling. […] Degree of mitochondrial swelling was determined 30 min after ceramide treatment.
# Mitochondria were incubated at the condition described under Section 9.1 except that 2 μM of TPP+ was present from the beginning of the experiment. Trace 2, no addition. […] Trace 4, FCCP at 1 μM was present from the beginning of the experiment. […] Alamethicin (ALA), a pore-forming peptide (7 μg/mg protein), was added as indicated to induce permeabilization and determine the full extent of potential changes in the parameters of interest.
# Mitochondria were incubated at the condition described under “Experimental procedures”. […] Trace 2, DCCD at 100 μM was added from the beginning of the experiment. Alamethicin (ALA) was added as indicated to determine full degree of permeabilization. […] The curve was generated from experiments similar to that depicted in traces 1 and 2 with indicated concentration of DCCD present from the beginning of the experiment.
# Effect of hydrophobic cations on the time-course of mitochondrial large-amplitude swelling. Alamethicin (ALA), a pore-forming peptide (7 μg/mg protein), was added as indicated to induce permeabilization and determine the full extent of mitochondrial swelling. Where indicated cations at 60 μM were added to the incubation medium. Trace 1, no additions; trace 2, C2 pyridinium ceramide; trace 3, TMRM; trace 4, cetyl pyridinium; trace 5, TPP^+. Trace 3 was corrected for the absorbance of TMRM.
# Time-course (A) and dose-response (B) of the effect of C6 pyridinium dihydroceramide on mitochondrial large-amplitude swelling. Mitochondria were incubated at the condition described under “Experimental procedures”. Alamethicin (ALA), a pore-forming peptide (7 μg/mg protein), was added as indicated to induce permeabilization and determine the full extent of mitochondrial swelling. Where indicated ceramides at 30 μM were added to the incubation medium. […] Trace 1, no additions; trace 2, C6 pyridinium ceramide; trace 3, C6 pyridinium dihydroceramide. […] Degree of mitochondrial swelling was determined 15 min after ceramide treatment. Trace 1, C6 pyridinium dihydroceramide; trace 2, C6 pyridinium ceramide.
# MCF7 cells = conditions: 5 μM
# Protocol: FIGS. 4A-4C show the cellular levels of CCPS analogs. MCF 7 cells were treated with 5 μM concentration of CCPS analogs over the time and cellular level of the nonmetabolized CCPSs was measured by MS methodology as shown under Experimental. Results are expressed as % of concentration applied.
# A parallel set of cells was used to determine cell proliferation and to prepare lipid extracts for MS analysis.
# Briefly, for the indicated points, media was removed, cells were washed twice with PBS, scraped into cold PBS (2×1.0 ml), transferred to glass vials and centrifuged for 5 min at 800 rpm. Cell pellets corresponding to ˜1×10^6 cells, were fortified with the internal standards IS (C17 base D-erythro-sphingosine: 17Sph, C17 sphingosine-1-phosphate: 17Sph-1P, N-palmitoyl-D-erythro-C13 sphingosine: 13CC16-Cer and N-heptadecanoyl-D-erythro-C17shingosine: 17CC17-Cer) and extracted (2×2 ml) into a one-phase solvent system with ethyl acetate/iso-propanol/water (60/30/10 v/v). One ml of this extract was used for Pi determination after lipid re-extraction by the Bligh and Dyer method. Remaining lipid extract was evaporated, reconstituted in 100 μl of methanol, and samples were injected on the Surveyor/TSQ 7000 LC/MS system and gradient eluted from the BDS Hypersil C8, 150×3.2 mm, 3 μm particle size column, with 1.0 mM methanolic ammonium formate/2 mM aqueous ammonium formate mobile phase system. Peaks corresponding to the target analytes and IS were collected and processed using the Xcalibur software system.
# Cellular level of CCPS analogs was established by MS methodology.
# [5] = Solubility of ceramides and ceramidoids in water
# [6] = aqueous conditions at pH 4.5, 7.5 and 8.5 over 48 hrs
# [7] = Homo sapiens, UM-SCC-22A, MTT, read-out: IC50 of chemotherapeutic agents
# [8] = UM-SCC-22A, 48 hr, read-out: IC50, cell growth
# [9] = UM-SCC-22A, 96 hr, DMEM, read-out: IC50, cell growth
# [10] = Homo sapiens, read-out: IC50 of chemotherapeutic agents
compound,measurement,setting,value
"CC(=O)O[C@H]1C(=O)[C@@]2(C)[C@H]([C@H](OC(=O)c3ccccc3)[C@]3(O)C[C@H](OC(=O)[C@H](O)[C@@H](NC(=O)c4ccccc4)c4ccccc4)C(C)=C1C3(C)C)[C@]1(OC(C)=O)CO[C@@H]1C[C@@H]2O [PAX, paclitaxel, reference compound]",IC50,UM-SCC-22A cells; [7],1000 to 100000 nM
"CCCCCCCCCCCCC/C=C/[C@H](O)[C@H](CO)NC(=O)CCCCCCCCCCCCCCC[n+]1ccccc1.[Br-] [LCL87, L-threo-2-N-[16′-(1″-Pyridinium)-hexadecanoyl]-sphingosine Bromide]",inhibitory effect on MCF7 cell growth (in words),[1]; 48 h,"similar, concentration dependent (1.0-10.0 μM) inhibitory effect on cell growth"
same,IC50,UM-SCC-22A cells; [8],~1000 nM
same,IC50,UM-SCC-22A cells; [9],~300 nM
L-erythro-2-N-[6′-(1″-Pyridinium)-hexanoyl]-sphingosine Bromide [LCL187],inhibitory effect on MCF7 cell growth (in words),[1]; 48 h,caused inhibitory effect on MCF7 cell growth
"COc1cccc2c1C(=O)c1c(O)c3c(c(O)c1C2=O)C[C@@](O)(C(=O)CO)C[C@@H]3O[C@H]1C[C@H](N)[C@H](O)[C@H](C)O1 [DOX, doxorubicin]",MTD of reference drugs (known),[2],1 to 2 mg/kg and 2 mg/kg
same,IC50,UM-SCC-22A cells; [10],100 to 250 nM
"N.N.[Cl][Pt][Cl] [CSP, cisplatinum]",MTD of reference drugs (known),[2],9 mg/kg
"O=c1[nH]cc(F)c(=O)[nH]1 [5-FU, 5-fluorouracil, reference compound]",MTD of reference drugs (known),[2],25 mg/kg
same,IC50,UM-SCC-22A cells; [10],1000 to 100000 nM
"CCCCCCCCCCCCCCC[C@@H](O)[C@H](CO)NC(=O)CCCCC[n+]1ccccc1.[Br-] [LCL143, D-erythro-2-N-[6′-(1″-Pyridinium)-hexanoyl]-4,5-dihydrosphingosine Bromide]",binding to mitochondria,[3]; 30 μM,9.8±0.7 nmol/mg protein
same,lag period of the induction of mitochondrial swelling versus C6-pyridinium-ceramide,[4]; 30 μM,three fold increase in the lag period
same,IC50,[1],5 µM and 5.02 µM
same,"Intracellular level, % of concentration applied",MCF7 cells; 1 h,15%
same,"Cellular level, % of concentration applied",MCF7 cells; 5 h,13%
same,"Cellular level, % of concentration applied",MCF7 cells; 24 h,35%
"CCCCCCCCCCCCC/C=C/[C@@H](O)[C@H](CO)NC(C)=O [C2-Cer, D-erythro-C2-ceramide, reference compound]",Solubility at 37° C.,[5],0.01 mg/mL
same,Solubility at 37° C. ([mM]),[5],(0.029) mM
same,inhibitory effect on MCF7 cell growth (in words),[1]; 48 h,inactive
"CCCCCCCCCCCCCCCC[n+]1ccccc1 [cetylpyridinium bromide, Cetylpyridinium bromide (CPB) monohydrate, reference compound]",mitochondrial large-amplitude swelling (in words),[4],only moderate mitochondrial swelling
"c1ccc([P+](c2ccccc2)(c2ccccc2)c2ccccc2)cc1 [TPP^+, reference compound]",mitochondrial large-amplitude swelling (in words),[4],fail to induce large-amplitude swelling
CCCCCCCCCCCCCC=CC(O)C(CO)NC(=O)CCCCCCCCCCC[n+]1ccccc1 (stereo not shown) [LCL89],IC50,UM-SCC-22A cells; [8],~1000 nM
same,IC50,UM-SCC-22A cells; [9],~300 nM
D-threo-2-N-[6′-(1″-Pyridinium)-hexanoyl]-sphingosine Bromide [LCL272],inhibitory effect on MCF7 cell growth (in words),[1]; 48 h,caused inhibitory effect on MCF7 cell growth
"CCCCCCCCCCCCC/C=C/[C@@H](O)[C@H](CO)NC(=O)CCc1ccc[n+](CCCC)c1 [LCL277, D-erythro-2-N-[3′-[3″-(1″-Butyl)-pyridinium]-propionoyl]-sphingosine Bromide]",IC50,[1]; listed as LCL-277,13 µM
same,IC50,[1],8.5 µM
"COc1cccc2c1C(=O)c1c(O)c3c(c(O)c1C2=O)C[C@@](O)(C(C)=O)C[C@@H]3O[C@H]1C[C@H](N)[C@H](O)[C@H](C)O1 [DNR, daunorubicin, reference compound]",IC50,UM-SCC-22A cells; [10],100 to 250 nM
"CCCCCCCCCCCCC/C=C/[C@@H](O)[C@H](CO)NC(=O)C[n+]1ccccc1.[Br-] [LCL150, D-erythro-2-N-[2′-(1″-Pyridinium)-acetyl]-sphingosine Bromide]",binding to mitochondria,[3]; 60 μM,29.8 nmol/mg protein
same,effect on ΔΨ and mitochondrial swelling (in words),[4]; 40 μM,only minor changes in the magnitude of mitochondrial swelling and the value of ΔΨ
same,mitochondrial large-amplitude swelling (in words),[4],failed to induce the same degree of swelling
same,Stability (decomposition) by MS,[6],no evidence of their decomposition
same,IC50,[1],8 µM
same,effect on cell growth (in words),"UM-SCC-22A cells; UM-SCC-22A, 96 hr",did not exert a significant effect on cell growth
same,"Cellular level, % of concentration applied",MCF7 cells; 5 h,~17%
same,"Cellular level, % of concentration applied",MCF7 cells; 24 h,50%
"CCCCCCCCCCCCC/C=C/[C@@H](O)[C@H](CO)NC(=O)c1ccc[n+](CCCCCCCC)c1.[Br-] [LCL275, D-erythro-2-(1′-Octylnicotinoyl)-sphingosine Bromide]",Solubility at 22° C.,[5],62 mg/mL
same,Solubility at 22° C. ([mM]),[5],(103) mM
same,Solubility at 37° C.,[5],120 mg/mL
same,Solubility at 37° C. ([mM]),[5],(200) mM
same,IC50,[1]; listed as LCL-275,15 µM
same,IC50,[1],~20 µM
"CN(Cc1cnc2nc(N)nc(N)c2n1)c1ccc(C(=O)N[C@@H](CCC(=O)O)C(=O)O)cc1 [MTX, methotrexate, reference compound]",IC50,UM-SCC-22A cells; [7],100 to 250 nM
"CCCCCCCCCCCCC/C=C/[C@@H](O)[C@H](CO)NC(=O)CCCCCCCCCCCCCCC [C16-Cer, D-erythro-C16-ceramide, reference compound]",Solubility at 37° C.,[5],0.0003 mg/mL
same,Solubility at 37° C. ([mM]),[5],(0.0005) mM
"CCCCCCCCCCCCCCC[C@@H](O)[C@H](CO)NC(=O)C[n+]1ccccc1.[Br-] [LCL319, D-erythro-2-N-[2′-(1″-Pyridinium)-acetyl]-4,5-dihydrosphingosine Bromide]",Solubility at 22° C.,[5],0.9 mg/mL
same,Solubility at 22° C. ([mM]),[5],(1.8) mM
same,Solubility at 37° C.,[5],45 mg/mL
same,Solubility at 37° C. ([mM]),[5],(90) mM
same,inhibition of MCF7 cell growth,"[1]; 10 μM, 48 h",15%
same,IC50,[1],12.5 µM
same,"Cellular level, % of concentration applied",MCF7 cells; 5 h,27%
same,"Cellular level, % of concentration applied",MCF7 cells; 24 h,52%
"COC(=O)c1ccccc1-c1c2ccc(=[N+](C)C)cc-2oc2cc(N(C)C)ccc12 [TMRM, reference compound]",binding to mitochondria,[3]; 60 μM,50±2.6 nmol/mg protein
same,mitochondrial large-amplitude swelling (in words),[4],fail to induce large-amplitude swelling
"CCCCCCCCCCCCC/C=C/[C@@H](O)[C@H](CO)NC(=O)CCCCC[n+]1ccc(C=Cc2ccc(N(C)C)cc2)cc1 [LCL186, D-erythro-2-N-[6′-[1″-[4′″-[(4″″-N,N-Dimethylamino)styryl]-pyridinium]-hexanoyl]]-sphingosine Bromide]",IC50,[1],~4 µM

# Reference: US8093393B2, “Cationic ceramides, and analogs thereof, and their use for preventing or treating cancer” (MUSC Foundation for Research Development, priority 2004, dated 2012)
